Experimental data as given in patent US20180162871A1, “FLUORESCENT PROBE FOR DETECTING CALPAIN ACTIVITY” (The University of Tokyo, priority 2015, published 2018).
Non-standard residues stand in square brackets, D forms with d. Residues, ends and D or L forms follow the SMILES beside them. Nle = CCCC[C@H](N)C(=O)O

Tests used:
[1] = Measurement of the optical properties; format: physicochemical; conditions: 0.2 M sodium phosphate buffer of pH 2
Experimental: The optochemical properties of Ac-LLY-HMRG and Ac-LM-HMRG were measured in 0.2 M sodium phosphate buffer of pH 2.

[2] = target: T1, calpain-1 from human erythrocytes (Homo sapiens, UniProt P07384); test: In vitro enzyme assay using calpain (calpain 1); format: biochemical; conditions: probe 1 μM, 50 mM Tris buffer pH 7.4, 5 μM CaCl2, 25° C., excitation 495 nm, fluorescence 524 nm
T1 construct: calpain-1 from human erythrocytes; purchased 208713; host or cells: purified from human erythrocytes
T1 sequence (P07384 1-714): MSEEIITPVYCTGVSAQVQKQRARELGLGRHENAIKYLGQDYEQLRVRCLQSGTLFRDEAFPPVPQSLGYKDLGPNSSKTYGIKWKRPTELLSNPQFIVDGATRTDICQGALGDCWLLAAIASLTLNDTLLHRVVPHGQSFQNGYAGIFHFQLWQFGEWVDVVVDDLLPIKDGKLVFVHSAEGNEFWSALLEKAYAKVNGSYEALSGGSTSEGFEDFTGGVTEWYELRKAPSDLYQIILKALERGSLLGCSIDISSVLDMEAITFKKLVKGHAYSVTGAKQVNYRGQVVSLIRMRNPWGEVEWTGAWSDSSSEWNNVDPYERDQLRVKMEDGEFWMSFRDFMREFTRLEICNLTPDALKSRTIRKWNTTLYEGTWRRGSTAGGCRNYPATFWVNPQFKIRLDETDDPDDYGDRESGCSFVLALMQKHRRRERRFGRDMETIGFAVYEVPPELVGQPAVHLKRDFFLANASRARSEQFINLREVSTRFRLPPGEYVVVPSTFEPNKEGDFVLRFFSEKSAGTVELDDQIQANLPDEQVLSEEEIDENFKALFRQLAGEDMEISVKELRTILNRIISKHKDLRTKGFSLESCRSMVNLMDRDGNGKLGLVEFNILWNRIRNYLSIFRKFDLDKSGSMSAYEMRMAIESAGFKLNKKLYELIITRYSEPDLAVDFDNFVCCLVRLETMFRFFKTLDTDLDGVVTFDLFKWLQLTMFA
T1 sequence (P04632 1-268 partner): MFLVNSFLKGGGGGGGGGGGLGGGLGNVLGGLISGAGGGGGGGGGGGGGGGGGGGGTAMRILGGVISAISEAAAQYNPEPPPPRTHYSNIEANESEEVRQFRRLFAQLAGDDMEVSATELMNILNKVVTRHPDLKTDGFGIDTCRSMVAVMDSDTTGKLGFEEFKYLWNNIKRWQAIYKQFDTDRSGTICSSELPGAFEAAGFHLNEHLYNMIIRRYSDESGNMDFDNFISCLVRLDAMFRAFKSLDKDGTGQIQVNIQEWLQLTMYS
Experimental: (§1) A calpain enzyme addition assay was conducted in Tris buffer under the following conditions using a probe synthesized and designed by the above method. As a result, the absorption and fluorescence intensity of Ac-LLY-HMRG increased about two-fold due to the enzymatic reaction, and it was confirmed to function as a calpain probe. The results are shown in FIG. 1a (using calpain 1) and FIG. 1b (using calpain 2).
(§2) A quantity of 3 μL of a DMSO solution (1 mM) of the probe was dissolved in 3 mL of 50 mM Tris buffer (pH 7.4) (containing 5 μM of CaCl2 for calpain 1 and 500 μM of CaCl2 for calpain 2) (final probe concentration: 1 μM). […] The excitation wavelength was 495 nm, and the fluorescence wavelength was 524 nm. […]
(§3) A calpain enzyme addition assay was conducted in Tris buffer using a probe synthesized and designed by the above method. As a result, the absorption and fluorescence intensity of Ac-LM-HMRG increased about four-fold due to the enzymatic reaction with calpain 2, and it was confirmed to function as a calpain probe. […]
(§4) A quantity of 3 μL of a DMSO solution (1 mM) of the probe was dissolved in 3 mL of 50 mM Tris buffer (pH 7.4) (containing 5 μM of CaCl2 for calpain 1 and 500 μM of CaCl2 for calpain 2) (final probe concentration: 1 μM). […] The excitation wavelength was 495 nm, and the fluorescence wavelength was 524 nm.

[3] = system: calpain-2 from porcine kidney; test: In vitro enzyme assay using calpain (calpain 2); format: biochemical; conditions: probe 1 μM, 50 mM Tris buffer pH 7.4, 500 μM CaCl2, 25° C., excitation 495 nm, fluorescence 524 nm
Experimental: as §1, §2, §3, §4

[4] = system: calpain activity in HeLa cells; test: Live cell imaging of calpain activity in HeLa cells; format: cell-based; conditions: for visualization of calpain activity in HeLa cells (fluorescence image): 30 minutes with 10 KM of probe, confocal microscope
Experimental: The calpain activity in HeLa cells was visualized by the following procedure using Ac-LLY-HMRG.
(a) HeLa cells were incubated for one hour at 37° C. using FBS (BD Pharmingen stain buffer)-free DMEM (Dulbecco's modified Eagle's medium), and also incubated for 30 minutes by 10 KM of Ac-LLY-HMRG. Fluorescence images and transmission images were taken thereafter using a confocal microscope.
The calpain activity in HeLa cells was visualized by the following procedure using Ac-LM-HMRG.
(a) HeLa cells were incubated for one hour at 37° C. using FBS (BD Pharmingen stain buffer)-free DMEM (Dulbecco's modified Eagle's medium), (b) 1 KM ALLN (calpain selective inhibitor)-containing DMEM (FBS (−)), (c) 2 KM ALLN-containing DMEM (FBS (−)), and (d) 5 KM ALLN-containing DMEM (FBS (−)), and also incubated for 30 minutes by 10 KM of Ac-LM-HMRG. Fluorescence images and transmission images were taken thereafter using a confocal microscope. The results are shown in FIGS. 4a-4d (the left side of each drawing is the fluorescence image; the right side is the transmission image). The scale bar in the drawing is 50 μm.

rat NMDA injury model = test: Rat NMDA injury model, fundus photography; format: in vivo, SD rats; conditions: Ac-LM-HMRG 2 mM, 2 μL to the eye
Experimental: SD rats were placed under general anesthesia using Nembutal. N-methyl-D-aspartic acid (NMDA) (10 mM, 2 μL) or PBS was administered to the eye. The animals were again placed under anesthesia by ketamine-xylazine mixture four hours later, and Ac-LM-HMRG (2 mM, 2 μL) was administered to the eye. The fundus was photographed by an F10 (Nidec confocal biomicroscope).
In FIGS. 5 and 6, locations indicated by an arrow show nerve cells stained by HMRG.

mouse NMDA injury model = test: Flat-mounted retinas with mouse NMDA injury model; format: in vivo, BL6/J mice; conditions: Ac-LM-HMRG 0.5 mM, 1 μL to the eye
Experimental: A study by mouse NMDA injury model was conducted with flat-mounted retinas. […] After one week, the mice were anesthetized by Nembutal, and 1 μL of 30 mM NMDA (PBS solution) or 1 μL of PBS was administered to the vitreous body in the eye. Two weeks later, the mice were again anesthetized by ketamine-xylazine, and Ac-LM-HMRG (0.5 mM, 1 μL, PBS solution) was administered to the eye. One hour after Ac-LM-HMRG administration, Sytox (registered trademark) Orange (for staining cells that have undergone cell death, […], 1 μL, PBS solution) (manufactured by Invitrogen) was administered to the vitreous body. Ten minutes later, the eyeball was removed, fixed for two hours by 4% paraformaldehyde (PFA), and flat-mounted retinas were prepared.

Absmax [1] [nm]	Emmax [1] [nm]	Φn [1]	increase of absorption and fluorescence intensity due to the enzymatic reaction [2]	increase of absorption and fluorescence intensity due to the enzymatic reaction [3]	Compound	visualization of calpain activity in HeLa cells (fluorescence image) [4]	effect of inhibitor on fluorescence intensity within the cells ([4]; for one hour at 37° C., then 10 KM of Ac-LM-HMRG for 30 minutes)	staining of nerve cells in fundus photograph, NMDA group (rat NMDA injury model; NMDA-administered rats, 30, 60, and 90 minutes after administration)	staining of nerve cells in fundus photograph, PBS group (rat NMDA injury model; PBS-administered rats, after 30, 60 and 90 minutes)	staining of flat-mounted retina, NMDA group (mouse NMDA injury model; NMDA group mice)	staining of flat-mounted retina, PBS group (mouse NMDA injury model; PBS group mice)
501	524	0.81			N=c1ccc2c(-c3ccccc3CO)c3ccc(N)cc3oc-2c1 [HMRG, reference compound]						
470	526	0.19	about two-fold	about two-fold	CSCC[C@H](NC(=O)[C@H](CC(C)C)NC(C)=O)C(=O)Nc1ccc2c(c1)Oc1cc(N)ccc1C21OCc2ccccc21 (stereo partly shown) [Ac-LLY-HMRG]	made it possible to monitor the calpain activity inside HeLa cells					
					CCCC[C@@H](C=O)NC(=O)[C@H](CC(C)C)NC(=O)[C@H](CC(C)C)NC(C)=O [ALLN, reference compound] (Ac-Leu-Leu-[Nle]-aldehyde)		decreased the fluorescence intensity within the cells				
470	529	0.32		about four-fold	CC(=O)N[C@@H](CC(C)C)C(=O)N[C@@H](CC(C)C)C(=O)N[C@@H](Cc1ccc(O)cc1)C(=O)Nc1ccc2c(c1)Oc1cc(N)ccc1C21OCc2ccccc21 (stereo partly shown) [Ac-LM-HMRG]	made it possible to monitor the calpain activity inside HeLa cells		nerve cells were clearly stained	nerve cells were only very slightly stained	calpain activity was detected	not found
